Measured values: paper PMC9719519, “Non-classical ferroptosis inhibition by a small molecule targeting PHB2” (Nature Communications, 2022)

Target: prohibitin 2 (PHB2) (Homo sapiens, UniProt Q99623)
Test: diazirine photoaffinity labelling (UV […] nm) with pull-down/western blot; DARTS
Format: cell-based
Set-up: endogenous PHB2 in ES-2 cells

prohibitin 2 (PHB2), sequence (Q99623 2-299): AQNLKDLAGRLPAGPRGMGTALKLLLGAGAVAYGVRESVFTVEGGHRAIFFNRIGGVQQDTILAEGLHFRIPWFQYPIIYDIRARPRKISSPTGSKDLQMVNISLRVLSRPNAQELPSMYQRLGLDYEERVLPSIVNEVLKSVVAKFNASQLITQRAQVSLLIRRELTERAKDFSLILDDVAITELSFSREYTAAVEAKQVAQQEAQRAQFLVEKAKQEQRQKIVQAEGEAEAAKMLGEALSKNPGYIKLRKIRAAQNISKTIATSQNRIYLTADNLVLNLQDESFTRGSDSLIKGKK

## C#CCCC1(CC(=O)N2CCC(n3cc(-c4cn5cc(-c6ccccc6)nc5c(C5=CCOCC5)n4)cn3)CC2)N=N1 [YL-939-1]
  diazirine photoaffinity labelling (UV 365 nm) with pull-down/western blot; DARTS: revealed that only PHB2 protein could be pulled down by the probe (Fig. 4D)
